Common to all, as to type: biochemical
One assay deals with T1, human ME1 enzyme (Homo sapiens, UniProt P48163).
T1 sequence (P48163 1-572): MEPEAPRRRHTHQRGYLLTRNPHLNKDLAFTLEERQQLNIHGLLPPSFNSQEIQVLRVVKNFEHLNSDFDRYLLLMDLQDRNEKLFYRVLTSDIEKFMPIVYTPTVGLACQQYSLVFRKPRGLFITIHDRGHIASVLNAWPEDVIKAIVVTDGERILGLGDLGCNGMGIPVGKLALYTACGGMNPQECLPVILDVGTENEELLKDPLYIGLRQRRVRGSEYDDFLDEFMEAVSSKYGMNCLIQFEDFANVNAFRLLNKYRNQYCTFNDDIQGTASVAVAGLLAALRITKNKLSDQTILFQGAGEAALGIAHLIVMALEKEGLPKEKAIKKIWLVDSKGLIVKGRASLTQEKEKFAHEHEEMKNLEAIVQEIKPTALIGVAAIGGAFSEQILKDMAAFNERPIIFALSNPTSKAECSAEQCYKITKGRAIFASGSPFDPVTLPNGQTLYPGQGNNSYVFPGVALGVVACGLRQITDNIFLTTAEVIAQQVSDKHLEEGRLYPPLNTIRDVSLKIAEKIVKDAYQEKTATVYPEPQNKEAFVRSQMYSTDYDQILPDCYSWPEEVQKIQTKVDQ
Briefly: ME1 inhibition assay (diaphorase/resazurin coupled fluorescence). The conditions noted are these: 10 μM compound concentration; read-out: Malic Enzyme 1 % inhibition (10 μM). The gist of the method:
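Compounds at 10 μM preincubated 15 min in 50 mM Tris-HCl pH 7.5, 10 mM MnCl2, 2 mM L-malate, 10 μM resazurin, 0.01 mg/ml diaphorase, then human ME1 added for 5 min; reaction started with NADP+ and run 2 h at room temperature. Resorufin fluorescence (ex 540/em 600 nm) normalized to enzyme-only (100%) and no-enzyme (0%) controls.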

For a further assay, the target named is human ME2 enzyme (Homo sapiens, UniProt P23368). Briefly: ME2 inhibition assay (diaphorase/resazurin coupled fluorescence). The conditions noted are these: 10 μM compound concentration; read-out: Malic Enzyme 2 % inhibition (10 μM). The gist of the method:
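Human ME2 (10 μL of 60 nM) was preincubated 5 min at room temperature with compound (10 μM) in 50 mM Tris-HCl pH 7.5, 10 mM MnCl2, 7 mM L-malate, 50 μM resazurin and 0.025 mg/ml diaphorase. The reaction was started with 10 μL of 2 mM β-NAD+ and run 2 hours at room temperature. Resorufin fluorescence (ex 540/em 600 nm) was normalized to enzyme-only (100%) and no-enzyme (0%) controls as % activity.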

A further assay addresses T2, human ME3 enzyme (Homo sapiens, UniProt Q16798).
T2 sequence (Q16798 1-604): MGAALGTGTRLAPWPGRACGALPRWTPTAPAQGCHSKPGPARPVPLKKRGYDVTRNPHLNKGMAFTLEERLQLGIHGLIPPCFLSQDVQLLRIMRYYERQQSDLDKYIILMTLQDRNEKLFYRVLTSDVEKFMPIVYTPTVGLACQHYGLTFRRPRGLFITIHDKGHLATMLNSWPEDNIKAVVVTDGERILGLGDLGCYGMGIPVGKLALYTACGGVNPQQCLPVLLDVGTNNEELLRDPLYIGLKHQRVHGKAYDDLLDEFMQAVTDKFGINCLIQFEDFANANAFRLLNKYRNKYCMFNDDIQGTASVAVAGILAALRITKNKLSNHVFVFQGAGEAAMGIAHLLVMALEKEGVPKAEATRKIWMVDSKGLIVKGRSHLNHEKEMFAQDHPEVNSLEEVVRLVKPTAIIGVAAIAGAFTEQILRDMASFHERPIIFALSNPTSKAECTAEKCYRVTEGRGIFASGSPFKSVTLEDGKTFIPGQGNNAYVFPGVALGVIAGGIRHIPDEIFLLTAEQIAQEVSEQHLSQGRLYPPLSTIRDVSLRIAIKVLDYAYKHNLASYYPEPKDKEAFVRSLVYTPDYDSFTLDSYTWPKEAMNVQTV
The assay can be described thus: ME3 inhibition assay (diaphorase/resazurin coupled fluorescence). The conditions noted are these: 10 μM compound concentration; read-out: Malic Enzyme 3 % inhibition (10 μM). The gist of the method: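 Coupled read-out: NADPH made by human ME3 (20 nM stock) drives diaphorase conversion of resazurin (50 μM) to resorufin; buffer 50 mM Tris-HCl pH 7.5, 10 mM MnCl2, 3 mM L-malate.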
A general note: Alamar Blue is a resazurin reagent that responds to reducing activity.

Some results are limits rather than exact numbers.

human ME2 enzyme, sequence (P23368 19-584): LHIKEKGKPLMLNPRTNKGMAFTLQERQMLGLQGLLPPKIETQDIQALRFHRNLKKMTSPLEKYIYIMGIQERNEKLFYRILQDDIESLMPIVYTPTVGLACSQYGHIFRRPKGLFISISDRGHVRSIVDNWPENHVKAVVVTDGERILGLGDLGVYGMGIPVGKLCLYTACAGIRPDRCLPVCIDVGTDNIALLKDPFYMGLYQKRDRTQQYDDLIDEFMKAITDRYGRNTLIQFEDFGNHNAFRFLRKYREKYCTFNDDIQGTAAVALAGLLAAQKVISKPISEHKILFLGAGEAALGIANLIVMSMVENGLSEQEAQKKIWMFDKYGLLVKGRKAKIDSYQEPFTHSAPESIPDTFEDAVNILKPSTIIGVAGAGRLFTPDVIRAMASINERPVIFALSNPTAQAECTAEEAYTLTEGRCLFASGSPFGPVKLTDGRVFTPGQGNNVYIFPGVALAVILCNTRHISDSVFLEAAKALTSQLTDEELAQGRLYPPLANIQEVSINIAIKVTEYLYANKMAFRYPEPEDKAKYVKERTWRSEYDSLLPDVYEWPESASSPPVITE

What is called inhibition is the share of the control response that was lost under treatment. For the molecule `O=C(CNC12CC3CC(CC(C3)C1)C2)N1CCN(c2ccc(O)cn2)CC1` [I.83, 2-(1-Adamantyl-amino)-1-[4-(5-hydroxy-2-pyridyl)-piperazin-1-yl]ethanone], the results for the inhibition at 10 µM on human ME1 enzyme, at human ME2 enzyme and at human ME3 enzyme were 50 to 69%, 50 to 69% and > 90%, respectively.
Turning to `COc1ccc(C(=CC(=O)N2CCN(c3ccc(O)cn3)CC2)c2ccc(OC)cc2)cc1` [I.84, 1-[4-(5-Hydroxy-2-pyridyl)-piperazin-1-yl]-3,3-bis(4-methoxy-phenyl)-prop-2-en-1-one], the inhibition at 10 µM at human ME1 enzyme is 70 to 89%; at human ME2 enzyme, 70 to 89%; at human ME3 enzyme, > 90%.
As for `O=C(c1cc2cc(F)ccc2[nH]1)N1CCN(c2ccc(O)cn2)CC1` [I.88], the values for the inhibition at 10 µM at human ME1 enzyme, at human ME2 enzyme and on human ME3 enzyme were > 90%, 70 to 89% and > 90%, respectively.
With `O=C(CCc1cccc(F)c1)N1CCN(c2ccc(O)cn2)CC1` [I.92, 3-(3-Fluoro-phenyl)-1-[4-(5-hydroxy-pyridin-2-yl)-piperazin-1-yl]-propan-1-one], the inhibition at 10 µM at human ME1 enzyme, on human ME2 enzyme and on human ME3 enzyme was > 90% each time.
Take `COc1ccc(C(CC(=O)N2CCN(c3ccc(O)cn3)CC2)c2ccc(OC)cc2)cc1` [I.93, 1-[4-(5-Hydroxy-2-pyridyl)-piperazin-1-yl]-3,3-bis(4-methoxy-phenyl)-propan-1-one]: the inhibition at 10 µM at human ME1 enzyme is 70 to 89%; on human ME2 enzyme it was 70 to 89%; at human ME3 enzyme, > 90%.
Consider `O=C(CC=C(c1ccccc1)c1ccccc1)N1CCN(c2ccc(O)cn2)CC1` [I.94, 1-[4-(5-Hydroxy-2-pyridyl)-piperazin-1-yl]-4,4-diphenyl-but-3-en-1-one], for which the inhibition at 10 µM is 70 to 89% at human ME1 enzyme, 70 to 89% on human ME2 enzyme and > 90% at human ME3 enzyme.
As for `O=C(N1CCN(c2ccc(O)cn2)CC1)C(O)(c1ccccc1)C1CCCCC1` (stereo not drawn) [I.95, 2-cyclohexyl-2-hydroxy-1-[4-(5-hydroxy-2-pyridyl)piperazin-1-yl]-2-phenyl-ethanone], the inhibition at 10 µM on human ME1 enzyme is 70 to 89%; at human ME2 enzyme, 70 to 89%; at human ME3 enzyme, > 90%.
Turning to `CN(CC(=O)N1CCN(c2ccc(O)cn2)CC1)CC12CC3CC(CC(C3)C1)C2` [I.96, 2-[1-Adamantyl-methyl-(methyl)-amino]-1-[4-(5-hydroxy-2-pyridyl)-piperazin-1-yl]ethanone], the inhibition at 10 µM is 70 to 89% on human ME1 enzyme, 70 to 89% at human ME2 enzyme and > 90% at human ME3 enzyme.
In the case of `Cc1ccccc1CCC(=O)N1CCN(c2ccc(O)cn2)CC1` [I.107, 1-[4-(5-Hydroxy-pyridin-2-yl)-piperazin-1-yl]-3-o-tolyl-propan-1-one], the inhibition at 10 µM on human ME1 enzyme, on human ME2 enzyme and at human ME3 enzyme was > 90% in each case.
Consider `CC(CC(=O)N1CCN(c2ccc(O)cn2)CC1)c1ccccc1` (stereo not drawn) [I.115, 1-[4-(5-Hydroxy-pyridin-2-yl)-piperazin-1-yl]-3-phenyl-butan-1-one dihydro-chloride], for which the inhibition at 10 µM on human ME1 enzyme, at human ME2 enzyme and on human ME3 enzyme was > 90% in each case.
On to `O=C(CCc1cccs1)N1CCN(c2ccc(O)cn2)CC1` [I.116, 1-[4-(5-Hydroxy-pyridin-2-yl)-piperazin-1-yl]-3-thiophen-2-yl-propan-1-one], for which the inhibition at 10 µM on human ME1 enzyme, at human ME2 enzyme and on human ME3 enzyme was > 90% each time.
Regarding `O=C(CCC1CCCCC1)N1CCN(c2ccc(O)cn2)CC1` [I.121, 3-Cyclohexyl-1-[4-(5-hydroxy-2-pyridyl)-piperazin-1-yl]propan-1-one], the inhibition at 10 µM on human ME1 enzyme, at human ME2 enzyme and at human ME3 enzyme was > 90% each time.
`O=C(CCc1cc2ccccc2s1)N1CCN(c2ccc(O)cn2)CC1` [I.122, 3-Benzo[b]-thiophen-2-yl-1-[4-(5-hydroxy-pyridin-2-yl)-piperazin-1-yl]-propan-1-one]: the inhibition at 10 µM at human ME1 enzyme, at human ME2 enzyme and on human ME3 enzyme was > 90% in each case.
Take `O=C(c1ccc(-c2ccccc2)s1)N1CCN(c2ccc(O)cn2)CC1` [I.123, [4-(5-Hydroxy-pyridin-2-yl)-piperazin-1-yl]-(5-phenyl-thiophen-2-yl)-methanone]: the inhibition at 10 µM is 70 to 89% at human ME1 enzyme, 70 to 89% at human ME2 enzyme and > 90% at human ME3 enzyme.
`O=C(C1CC(O)(c2ccccc2)C1)N1CCN(c2ccc(O)cn2)CC1` (stereo not drawn) [I.124, (3-Hydroxy-3-phenylcyclo-butyl)-[4-(5-hydroxy-pyridin-2-yl)-piperazin-1-yl]-methanone]: the inhibition at 10 µM on human ME1 enzyme, at human ME2 enzyme and at human ME3 enzyme was > 90% each time.
In the case of `CC(C)(CC(=O)N1CCN(c2ccc(O)cn2)CC1)c1ccccc1` [I.125, 1-[4-(5-Hydroxy-pyridin-2-yl)-piperazin-1-yl]-3-methyl-3-phenyl-butan-1-one], the inhibition at 10 µM at human ME1 enzyme, on human ME2 enzyme and on human ME3 enzyme was > 90% in each case.
`O=C(CCc1ccc(F)cc1)N1CCN(c2ccc(O)cn2)CC1` [I.126, 3-(4-Fluoro-phenyl)-1-[4-(5-hydroxy-pyridin-2-yl)-piperazin-1-yl]-propan-1-one]: the inhibition at 10 µM on human ME1 enzyme, on human ME2 enzyme and at human ME3 enzyme was > 90% throughout.
Take `Cc1[nH]c2ccccc2c1CC(=O)N1CCN(c2ccc(O)cn2)CC1` [I.127, 1-[4-(5-Hydroxy-pyridin-2-yl)-piperazin-1-yl]-2-(2-methyl-1H-indol-3-yl)-ethanone]: the inhibition at 10 µM on human ME1 enzyme, on human ME2 enzyme and at human ME3 enzyme was > 90% each time.
In the case of `O=C(CCc1ccccc1C(F)(F)F)N1CCN(c2ccc(O)cn2)CC1` [I.128, 1-[4-(5-Hydroxy-pyridin-2-yl)-piperazin-1-yl]-3-(2-trifluoro-methylphenyl)-propan-1-one], the inhibition at 10 µM at human ME1 enzyme, on human ME2 enzyme and at human ME3 enzyme was > 90% in each case.
`O=C(CCc1ccccn1)N1CCN(c2ccc(O)cn2)CC1` [I.129, 1-[4-(5-Hydroxy-pyridin-2-yl)-piperazin-1-yl]-3-pyridin-2-yl-propan-1-one]: the inhibition at 10 µM at human ME1 enzyme was 70 to 89%; at human ME2 enzyme, 70 to 89%; at human ME3 enzyme, > 90%.
For `O=C(CC(O)c1ccccc1)N1CCN(c2ccc(O)cn2)CC1` (stereo not drawn) [I.130, 3-Hydroxy-1-[4-(5-hydroxy-pyridin-2-yl)-piperazin-1-yl]-3-phenyl-propan-1-one], the inhibition at 10 µM on human ME1 enzyme is 70 to 89%; on human ME2 enzyme, > 90%; at human ME3 enzyme, > 90%.
Turning to `O=C(Cc1c[nH]c2ccc(F)cc12)N1CCN(c2ccc(O)cn2)CC1` [I.131, 2-(5-fluoro-1H-indol-3-yl)-1-[4-(5-hydroxypyridin-2-yl)-piperazin-1-yl]-ethanone], the inhibition at 10 µM at human ME1 enzyme, at human ME2 enzyme and at human ME3 enzyme was > 90% in each case.

(Values after US11225480B2, “Malic enzyme inhibitors” (SUN PHARMA ADVANCED RESEARCH COMPANY LTD, priority 2019, dated 2022).)
